Assays:
[1] = In vitro skin permeation of diclofenac sodium from transdermal systems, Franz diffusion cells; format: in vitro ADME, human; details: for cumulative amount of diclofenac that permeated through the skin: human cadaver skin, 32° C., 24-hour study
[2] = In vitro skin permeation of testosterone from transdermal systems, Franz diffusion cells; details: for cumulative amount of testosterone that permeated through the skin: human cadaver skin, receiver 30% NMP
Description: An in vitro skin permeation study was conducted using two testosterone transdermal delivery systems.
The backing/active agent-in-adhesive film was then pressed onto the skin with the adhesive side facing the stratum corneum. […] Three diffusion cells were used for each formulation. The receiver solution was 30% N-methyl pyrrolidone (NMP) in 70% DI H2O (v/v). The entire receiver solution was collected and replaced with fresh 30% NMP solution at each time point. The receiver solution collected was analyzed by HPLC to determine the concentration of testosterone. The cumulative amount of testosterone that permeated across the human cadaver skin was calculated using the measured testosterone concentrations in the receiver solutions, and the results were plotted versus time (FIG. 3).

| SMILES | cumulative amount of diclofenac that permeated through the skin ([1]; PVPP powder added (Formulation B by Table 1)) | cumulative amount of diclofenac permeated relative to absence of the powder ([1]; PVPP powder added vs no PVPP powder) | cumulative amount of diclofenac that permeated through the skin ([1]; PVPP powder in combination with polyethylene oxide (Formulation C by Table 1)) | cumulative amount of diclofenac that permeated through the skin ([1]; no PVPP powder added (Formulation D by Table 1)) | cumulative amount of diclofenac that permeated through the skin ([1]; powdered starch, poly(acrylamide-acrylic acid) sodium salt instead of PVPP (Formulation A by Table 1)) | cumulative amount of testosterone that permeated through the skin ([2]; 0.75 g PVPP powder added (Formulation J by Table 5)) | cumulative amount of testosterone permeated relative to absence of the powder ([2]; 0.75 g PVPP powder vs no PVPP powder) | cumulative amount of testosterone that permeated through the skin ([2]; no PVPP powder added (Formulation I by Table 5)) |
| --- | --- | --- | --- | --- | --- | --- | --- | --- |
| O=C(O)Cc1ccccc1Nc1c(Cl)cccc1Cl [diclofenac, diclofenac sodium] | 2.41 mg/cm^2 | more than five times | 2.05 mg/cm^2 | 0.48 mg/cm^2 | 1.03 mg/cm^2 | – | – | – |
| C[C@]12CC[C@H]3[C@@H](CCC4=CC(=O)CC[C@@]43C)[C@@H]1CC[C@@H]2O [testosterone] | – | – | – | – | – | 0.70 mg/cm^2 | almost twice | 0.40 mg/cm^2 |
